Key:
B2 bradykinin receptor = target: T1, B2 bradykinin receptor (Homo sapiens, UniProt P30411); type: cell membranes, Membrane; conditions: chem-1; also: in other assays of this panel Not Active means under 50% inhibition at 10 µM
T1 sequence (P30411 whole entry): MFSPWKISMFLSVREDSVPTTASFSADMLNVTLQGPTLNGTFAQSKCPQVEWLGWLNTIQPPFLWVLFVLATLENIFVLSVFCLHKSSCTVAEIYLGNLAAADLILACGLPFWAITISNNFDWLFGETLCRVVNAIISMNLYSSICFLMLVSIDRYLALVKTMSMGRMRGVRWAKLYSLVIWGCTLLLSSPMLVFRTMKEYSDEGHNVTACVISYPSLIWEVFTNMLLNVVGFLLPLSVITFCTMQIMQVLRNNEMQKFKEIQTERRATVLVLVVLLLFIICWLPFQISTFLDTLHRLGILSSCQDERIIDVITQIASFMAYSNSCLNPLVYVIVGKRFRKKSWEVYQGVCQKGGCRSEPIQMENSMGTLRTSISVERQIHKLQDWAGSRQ

[1] = target: 5-hydroxytryptamine receptor 4 (Cavia porcellus, UniProt O70528); type: cell membranes, Dunkin-Hartley, Striatum, Membrane; also: in other assays of this panel Not Active means under 50% inhibition at 10 µM
[2] = target: T2, C-C chemokine receptor type 4 (Homo sapiens, UniProt P51679); type: cell membranes, Chem-1, Membrane; conditions: chem-1; also: in other assays of this panel Not Active means under 50% inhibition at 10 µM
T2 sequence (P51679 whole entry): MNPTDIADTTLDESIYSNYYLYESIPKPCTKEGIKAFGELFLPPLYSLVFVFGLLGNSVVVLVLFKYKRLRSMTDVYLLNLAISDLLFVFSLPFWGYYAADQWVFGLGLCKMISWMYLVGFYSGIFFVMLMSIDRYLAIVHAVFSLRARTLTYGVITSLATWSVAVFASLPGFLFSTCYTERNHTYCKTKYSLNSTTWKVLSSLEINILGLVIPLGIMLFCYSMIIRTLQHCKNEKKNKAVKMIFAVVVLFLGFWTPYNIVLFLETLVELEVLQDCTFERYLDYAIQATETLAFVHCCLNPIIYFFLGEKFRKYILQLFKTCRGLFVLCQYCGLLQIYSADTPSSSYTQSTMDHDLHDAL

[3] = DRUGMATRIX: Glutamate, Kainate radioligand binding (ligand: [3H] Kainic acid); type: cell membranes, Rattus norvegicus, Wistar, Brain, Membrane; conditions: Not Active = under 50% inhibition at 10 µM
[4] = DRUGMATRIX: Phorbol Ester radioligand binding (ligand: [3H] PDBu); type: cell membranes, Mus musculus, ICR, Brain, Membrane; conditions: Not Active = under 50% inhibition at 10 µM
[5] = target: Platelet-activating factor receptor (Homo sapiens, UniProt P25105); type: tissue-based; also: in other assays of this panel Not Active means under 50% inhibition at 10 µM
Cytochrome P450 2C19 = Cytochrome P450 2C19 (Homo sapiens, UniProt P33261); conditions: bti-tn-5b1-4; also: in other assays of this panel Not Active means under 50% inhibition at 10 µM
Cytochrome P450 3A4 = Cytochrome P450 3A4 (Homo sapiens, UniProt P08684); conditions: bti-tn-5b1-4; also: in other assays of this panel Not Active means under 50% inhibition at 10 µM
Cytochrome P450 3A4, sequence (P08684 whole entry): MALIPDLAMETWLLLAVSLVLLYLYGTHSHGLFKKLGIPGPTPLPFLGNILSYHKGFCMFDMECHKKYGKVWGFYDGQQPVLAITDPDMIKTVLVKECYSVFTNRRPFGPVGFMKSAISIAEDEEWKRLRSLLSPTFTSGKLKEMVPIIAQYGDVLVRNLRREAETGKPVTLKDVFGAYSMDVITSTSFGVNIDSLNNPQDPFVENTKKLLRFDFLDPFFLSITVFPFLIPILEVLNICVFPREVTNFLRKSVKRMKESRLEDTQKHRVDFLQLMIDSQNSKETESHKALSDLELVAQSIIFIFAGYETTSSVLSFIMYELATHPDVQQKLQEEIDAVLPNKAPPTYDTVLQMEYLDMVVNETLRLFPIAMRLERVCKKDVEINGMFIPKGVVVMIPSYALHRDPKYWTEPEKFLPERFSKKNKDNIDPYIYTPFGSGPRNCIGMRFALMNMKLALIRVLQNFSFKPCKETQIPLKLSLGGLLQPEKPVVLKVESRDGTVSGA

Platelet-activating factor receptor, sequence (P25105 whole entry): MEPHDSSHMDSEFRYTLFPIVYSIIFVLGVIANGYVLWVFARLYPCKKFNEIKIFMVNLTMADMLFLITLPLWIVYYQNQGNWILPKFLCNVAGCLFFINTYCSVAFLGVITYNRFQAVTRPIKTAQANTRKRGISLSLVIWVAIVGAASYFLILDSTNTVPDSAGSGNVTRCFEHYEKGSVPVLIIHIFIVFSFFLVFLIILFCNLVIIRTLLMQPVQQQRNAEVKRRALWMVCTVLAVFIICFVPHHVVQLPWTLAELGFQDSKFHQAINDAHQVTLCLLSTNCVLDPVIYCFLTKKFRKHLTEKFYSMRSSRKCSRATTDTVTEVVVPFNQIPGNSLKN
5-hydroxytryptamine receptor 4, sequence (O70528 whole entry): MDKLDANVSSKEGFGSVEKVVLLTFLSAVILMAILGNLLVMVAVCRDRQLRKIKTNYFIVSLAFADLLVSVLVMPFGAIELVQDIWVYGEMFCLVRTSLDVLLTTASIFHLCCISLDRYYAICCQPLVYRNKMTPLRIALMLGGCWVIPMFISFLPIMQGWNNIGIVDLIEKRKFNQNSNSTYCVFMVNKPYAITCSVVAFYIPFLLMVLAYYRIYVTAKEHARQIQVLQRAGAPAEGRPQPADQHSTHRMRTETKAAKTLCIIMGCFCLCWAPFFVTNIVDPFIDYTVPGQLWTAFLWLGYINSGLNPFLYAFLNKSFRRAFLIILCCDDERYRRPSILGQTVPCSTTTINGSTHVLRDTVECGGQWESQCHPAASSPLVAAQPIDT
Cytochrome P450 2C19, sequence (P33261 whole entry): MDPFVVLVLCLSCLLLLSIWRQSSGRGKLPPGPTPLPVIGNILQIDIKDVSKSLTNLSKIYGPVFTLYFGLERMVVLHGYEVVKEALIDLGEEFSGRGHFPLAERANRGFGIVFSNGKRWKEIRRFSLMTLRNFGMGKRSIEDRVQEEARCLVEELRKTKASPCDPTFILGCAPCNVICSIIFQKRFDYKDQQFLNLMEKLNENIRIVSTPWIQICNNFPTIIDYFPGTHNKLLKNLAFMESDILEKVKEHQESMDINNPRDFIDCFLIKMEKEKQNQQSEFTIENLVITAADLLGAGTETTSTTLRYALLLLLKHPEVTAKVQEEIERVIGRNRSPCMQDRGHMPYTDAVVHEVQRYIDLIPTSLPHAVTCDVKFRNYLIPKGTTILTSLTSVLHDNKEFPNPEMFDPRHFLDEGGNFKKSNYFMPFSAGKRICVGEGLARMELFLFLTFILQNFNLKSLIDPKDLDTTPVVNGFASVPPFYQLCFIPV

Compound	IC50 (B2 bradykinin receptor)	IC50 [1]	IC50 [2]	IC50 [3]	Ki [3]	IC50 [4]	Ki [4]	IC50 [5]	IC50 (Cytochrome P450 2C19)	Ki (Cytochrome P450 2C19)	IC50 (Cytochrome P450 3A4)	Ki (Cytochrome P450 3A4)	IC50 ([1]; read-out: IC50) [µM]	Ki ([1]; read-out: Ki) [µM]	Ki (B2 bradykinin receptor)	Ki [1]	Ki [2]	Ki [5]
CCCN1C[C@H](CSC)C[C@@H]2c3cccc4[nH]cc(c34)C[C@H]21 [PERGOLIDE]	Not Active	Not Active	Not Active	Not Active	Not Active	Not Active	Not Active	Not Active	Not Active	Not Active	Not Active	Not Active						
c1ccc2c(c1)c1cccc3ccc4cccc2c4c31 [BENZO[E]PYRENE]	Not Active	Not Active	Not Active	Not Active	Not Active	Not Active	Not Active	Not Active	Not Active	Not Active	Not Active	Not Active						
CC[C@@]1(O)C[C@H](O[C@H]2C[C@H](N(C)C)[C@H](O[C@H]3C[C@H](O)[C@H](O[C@H]4CCC(=O)[C@H](C)O4)[C@H](C)O3)[C@H](C)O2)c2c(cc3c(c2O)C(=O)c2c(O)cccc2C3=O)[C@H]1C(=O)OC [ACLARUBICIN]	Not Active	Not Active	Not Active	Not Active	Not Active	Not Active	Not Active	Not Active	Not Active	Not Active	Not Active	Not Active						
Cc1c(O)c(=O)ccn1C [DEFERIPRONE]	Not Active	Not Active	Not Active	Not Active	Not Active	Not Active	Not Active	Not Active	Not Active	Not Active	Not Active	Not Active						
NC1=NC(=O)C(c2ccccc2)O1 (stereo not drawn) [PEMOLINE]	Not Active	Not Active	Not Active	Not Active	Not Active	Not Active	Not Active	Not Active	Not Active	Not Active	Not Active	Not Active						
Sc1ncnc2nc[nH]c12 [MERCAPTOPURINE ANHYDROUS]	Not Active	Not Active	Not Active	Not Active	Not Active	Not Active	Not Active	Not Active	Not Active	Not Active	Not Active	Not Active						
O=c1[nH]c(=O)n([C@H]2C[C@H](O)[C@@H](CO)O2)cc1I [IDOXURIDINE]	Not Active	Not Active	Not Active	Not Active	Not Active	Not Active	Not Active	Not Active	Not Active	Not Active	Not Active	Not Active						
CNNCc1ccc(C(=O)NC(C)C)cc1 [PROCARBAZINE]	Not Active	Not Active	Not Active	Not Active	Not Active	Not Active	Not Active	Not Active	Not Active	Not Active	Not Active	Not Active						
CC(C)C(=O)Nc1ccc([N+](=O)[O-])c(C(F)(F)F)c1 [FLUTAMIDE]	Not Active		Not Active	Not Active	Not Active	Not Active	Not Active	Not Active	Not Active	Not Active	Not Active	Not Active	13.5	2.26				
LEAD (II) ACETATE	Not Active	Not Active	Not Active	Not Active	Not Active	Not Active	Not Active	Not Active	Not Active	Not Active	Not Active	Not Active			Not Active	Not Active	Not Active	Not Active
C[C@H]1c2cccc(O)c2C(=O)C2=C(O)[C@]3(O)C(=O)C(C(N)=O)=C(O)[C@@H](N(C)C)[C@@H]3[C@@H](O)[C@@H]21.O [DOXYCYCLINE]	Not Active	Not Active	Not Active	Not Active	Not Active	Not Active	Not Active	Not Active	Not Active	Not Active	Not Active	Not Active						
COc1ccc(C[C@H]2NC[C@H](O)[C@H]2OC(C)=O)cc1 [ANISOMYCIN]	Not Active	Not Active	Not Active	Not Active	Not Active	Not Active	Not Active	Not Active	Not Active	Not Active	Not Active	Not Active			Not Active	Not Active	Not Active	Not Active

Reference: ChEMBL document CHEMBL1909046, “DrugMatrix in vitro pharmacology data”
